According to patent US20230339981A1, “KRAS G12D MODULATING COMPOUNDS” (priority 2022, published 2023):

Tests used:
GDP-loaded KRAS G12D = GDP-loaded KRAS G12D (Homo sapiens (Human), UniProt P01116, G12D); experiment: KRAS G12D (GDP) biochemical assay (TR-FRET probe displacement); format: binding; details: 2 hours
Procedure, shortened: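 Compound pre-incubated 30 min with GDP-loaded KRAS G12D in 50 mM Hepes pH 7.4, 150 mM NaCl, 5 mM MgCl2, 0.005% Tween-20, then Eu-streptavidin and TR-FRET probe added. After 2 h at room temperature, TR-FRET ratio read; IC50 is 50% ratio decrease, sigmoidal fit.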

GP2D (KRAS G12D) cells = experiment: 2D cell viability assay (CellTiter-Glo); format: cell-based; details: GP2d, 96 h, 4 days
Procedure, shortened: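 GP2D (KRAS G12D) cells, 1000/well in RPMI + 10% FBS, were plated onto compound (1:3 DMSO series) and grown 4 days at 37 °C, 5% CO2 in 2D. CellTiter-Glo luminescence was read; EC50 is the concentration giving 50% signal decrease, from sigmoidal fit.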

GDP-loaded KRAS G12D, sequence (P01116-2 other isoform, or with tags, fused parts or gaps G12D): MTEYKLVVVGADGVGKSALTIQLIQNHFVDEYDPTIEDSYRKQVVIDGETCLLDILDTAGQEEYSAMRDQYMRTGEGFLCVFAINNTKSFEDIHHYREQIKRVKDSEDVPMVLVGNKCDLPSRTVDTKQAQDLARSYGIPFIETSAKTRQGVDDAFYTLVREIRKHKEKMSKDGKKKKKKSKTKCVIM

`C#Cc1c(F)ccc2cccc(-c3nc4c5c(nc(OCC67CCCN6CCC7)nc5c3F)N3C[C@H]5CC[C@H](N5)[C@@H]3[C@@H](C)C4)c12` [Example 157, (5S,5aS,6S,9R)-2-(8-ethynyl-7-fluoronaphthalen-1-yl)-1-fluoro-5-methyl-12-((tetrahydro-1H-pyrrolizin-7a(5H)-yl)methoxy)-4,5,5a,6,7,8,9,10-octahydro-3,10a,11,13,14-pentaaza-6,9-methanonaphtho[1,8-ab]heptalene] showed an IC50 (GDP-loaded KRAS G12D) of 0.0064 µM and an EC50 (GP2D (KRAS G12D) cells) of 0.0294 µM.

Molecule `Fc1cc(-c2nc3c4c(nc(OC[C@@]56CCCN5C[C@H](F)C6)nc4c2F)N2C[C@H]4CC[C@H](N4)[C@H]2CO3)c2ccccc2c1` [Example 47, (5aS,6S,9R)-1-fluoro-2-(3-fluoronaphthalen-1-yl)-12-(((2R,7aS)-2-fluorotetrahydro-1H-pyrrolizin-7a(5H)-yl)methoxy)-5a,6,7,8,9,10-hexahydro-5H-4-oxa-3,10a,11,13,14-pentaaza-6,9-methanonaphtho[1,8-ab]heptalene] has an IC50 (GDP-loaded KRAS G12D) of 3.4 µM and an EC50 (GP2D (KRAS G12D) cells) greater than 1 µM.

Work on `C#Cc1c(F)ccc2cccc(-c3nc4c5c(nc(OC[C@@]67CCCN6C[C@H](F)C7)nc5c3F)N3C[C@H]5CC[C@H](N5)[C@H]3CC[C@@H]4C)c12` [Example 174, (4S,6aR,7S,10R)-2-(8-ethynyl-7-fluoronaphthalen-1-yl)-1-fluoro-13-(((2R,7aS)-2-fluorotetrahydro-1H-pyrrolizin-7a(5H)-yl)methoxy)-4-methyl-5,6,6a,7,8,9,10,11-octahydro-4H-3,11a,12,14,15-pentaaza-7,10-methanocyclohepta[4,5]cycloocta[1,2,3-de]naphthalene] yielded an IC50 (GDP-loaded KRAS G12D) of 0.0057 µM and an EC50 (GP2D (KRAS G12D) cells) of 0.1 µM.

Work on `C#Cc1c(F)ccc2cccc(-c3nc4c5c(nc(OC[C@@]67CCCN6C[C@H](F)C7)nc5c3F)N3C[C@H]5CC[C@H](N5)[C@H]3CCCC4)c12` [Example 188, (7aR,8S,11R)-2-(8-ethynyl-7-fluoronaphthalen-1-yl)-1-fluoro-14-(((2R,7aS)-2-fluorotetrahydro-1H-pyrrolizin-7a(5H)-yl)methoxy)-4,5,6,7,7a,8,9,10,11,12-decahydro-3,12a,13,15,16-pentaaza-8,11-methanocyclohepta[4,5]cyclonona[1,2,3-de]naphthalene] yielded an IC50 (GDP-loaded KRAS G12D) of 0.0002 µM and an EC50 (GP2D (KRAS G12D) cells) of 0.1 µM.

`Fc1ccc2cccc(-c3nc4c5c(nc(OCC6(CN7CCC(OC(F)(F)F)CC7)CC6)nc5c3F)N3C[C@H]5CC[C@H](N5)[C@H]3CC4)c2c1OC(F)(F)F` [Example 120, (5aR,6S,9R)-1-fluoro-2-(7-fluoro-8-(trifluoromethoxy)naphthalen-1-yl)-12-((1-((4-(trifluoromethoxy)piperidin-1-yl)methyl)cyclopropyl)methoxy)-4,5,5a,6,7,8,9,10-octahydro-3,10a,11,13,14-pentaaza-6,9-methanonaphtho[1,8-ab]heptalene] gave an IC50 (GDP-loaded KRAS G12D) of 0.337 µM and an EC50 (GP2D (KRAS G12D) cells) of 1 µM.

In the case of `C#Cc1c(F)ccc2cccc(-c3c(Cl)c4c5c(nc(OC[C@@]67CCCN6C[C@H](F)C7)nc5c3F)N3C[C@H]5CC[C@H](N5)[C@H]3CC4)c12` [Example 202, (1S,4R,14aR)-12-chloro-11-(8-ethynyl-7-fluoronaphthalen-1-yl)-10-fluoro-8-(((2R,7aS)-2-fluorotetrahydro-1H-pyrrolizin-7a(5H)-yl)methoxy)-1,2,3,4,5,13,14,14a-octahydro-1,4-epiminoazepino[1′,2′:1,7]azepino[2,3,4-de]quinazoline], the IC50 (GDP-loaded KRAS G12D) is reported as 0.00037 µM and the EC50 (GP2D (KRAS G12D) cells) is reported as 0.064 µM.

`C#Cc1c(F)ccc2cccc(-c3nc4c5c(nc(OC[C@@]67CCCN6[C@H](COc6cccc(S(F)(F)(F)(F)F)c6)CC7)nc5c3F)N3C[C@H]5CC[C@H](N5)[C@H]3CC4)c12` [Example 108, (5aR,6S,9R)-2-(8-ethynyl-7-fluoronaphthalen-1-yl)-1-fluoro-12-(((3S,7aS)-3-((3-(pentafluoro-λ^6-sulfaneyl)phenoxy)methyl)tetrahydro-1H-pyrrolizin-7a(5H)-yl)methoxy)-4,5,5a,6,7,8,9,10-octahydro-3,10a,11,13,14-pentaaza-6,9-methanonaphtho[1,8-ab]heptalene] showed an IC50 (GDP-loaded KRAS G12D) of 0.0015 µM and an EC50 (GP2D (KRAS G12D) cells) of 0.45 µM.
